Assay results taken from ChEMBL document CHEMBL1132125, “Synthesis of phosphonate 3-phthalidyl esters as prodrugs for potential intracellular delivery of phosphonates” (Bioorg Med Chem Lett, 1999).

Columns and labels:
[1] = Half-life period of compound was measured in rat plasma.; type: ADME
Rattus norvegicus = species: Rattus norvegicus; assay: Intracellular concentration of 1-naphthalenemethylphosphonate (NMPA) in isolated rat hepatocytes was measured after 15 min of incubation.; type: functional; settings: Hepatocyte

Row | Compound | half-life [1] [min] | Concentration (Rattus norvegicus) [µM]
1 | COc1cc2c(c(OC)c1OC)C(=O)OC2OP(=O)(Cc1cccc2ccccc12)OC1OC(=O)c2c1cc(OC)c(OC)c2OC (configuration not stated) | 5 | 246
2 | COc1cccc2c1C(OP(=O)(Cc1cccc3ccccc13)OC1OC(=O)c3cccc(OC)c31)OC2=O (configuration not stated) |  | 0
3 | COc1ccc2c(c1)C(OP(=O)(Cc1cccc3ccccc13)OC1OC(=O)c3ccc(OC)cc31)OC2=O (configuration not stated) | 0.5 | 428
4 | O=C1OC(OP(=O)(Cc2cccc3ccccc23)OC2OC(=O)c3ccccc32)c2ccccc21 (configuration not stated) | 0.5 | 500
5 | Cc1ccc2c(c1-c1ccccc1)C(=O)OC2OP(=O)(Cc1cccc2ccccc12)OC1OC(=O)c2c1ccc(C)c2-c1ccccc1 (configuration not stated) | 10 | 20
6 | COc1cccc2c1C(=O)OC2OP(=O)(Cc1cccc2ccccc12)OC1OC(=O)c2c(OC)cccc21 (configuration not stated) | 2 | 336
7 | CCOc1cccc2c1C(=O)OC2OP(=O)(Cc1cccc2ccccc12)OC1OC(=O)c2c(OCC)cccc21 (configuration not stated) | 2 | 208
8 | COc1cc(OC)c2c(c1)C(OP(=O)(Cc1cccc3ccccc13)OC1OC(=O)c3c(OC)cc(OC)cc31)OC2=O (configuration not stated) |  | 359
9 | O=P(O)(O)Cc1cccc2ccccc12 |  | 0
10 | O=C1OC(OP(=O)(Cc2cccc3ccccc23)OC2OC(=O)c3c(Cl)ccc(Cl)c32)c2c(Cl)ccc(Cl)c21 (configuration not stated) | 0.1 | 78
